Tests used:
Test in all cases: KINOMEscan
Type in all cases: binding
Settings in all cases: 35 at 1 µM; read-out: % inhibition
JNK2 = molecular target: T1, JNK2 (Homo sapiens, UniProt P45984)
T1 construct: purchased Eurofins DiscoverX (KINOMEscan)
Protocol: (§1) KinomeScan Assay on 35 was performed as previously described at EuroFins DiscoverX (Fremont, CA, USA).

FLT3(R834Q) = molecular target: T2, FLT3(R834Q) (Homo sapiens, UniProt P36888, R834Q)
T2 construct: purchased Eurofins DiscoverX (KINOMEscan)
Protocol: as §1

PDGFRB = molecular target: T3, PDGFRB (Homo sapiens, UniProt P09619)
T3 construct: purchased Eurofins DiscoverX (KINOMEscan)
Protocol: as §1

PIK3C2B = molecular target: T4, PIK3C2B (Homo sapiens, UniProt O00750)
T4 construct: purchased Eurofins DiscoverX (KINOMEscan)
Protocol: as §1

AMPK-alpha2 = molecular target: T5, AMPK-alpha2 (Homo sapiens, UniProt P54646)
T5 construct: purchased Eurofins DiscoverX (KINOMEscan)
T5 sequence (P54646 whole entry): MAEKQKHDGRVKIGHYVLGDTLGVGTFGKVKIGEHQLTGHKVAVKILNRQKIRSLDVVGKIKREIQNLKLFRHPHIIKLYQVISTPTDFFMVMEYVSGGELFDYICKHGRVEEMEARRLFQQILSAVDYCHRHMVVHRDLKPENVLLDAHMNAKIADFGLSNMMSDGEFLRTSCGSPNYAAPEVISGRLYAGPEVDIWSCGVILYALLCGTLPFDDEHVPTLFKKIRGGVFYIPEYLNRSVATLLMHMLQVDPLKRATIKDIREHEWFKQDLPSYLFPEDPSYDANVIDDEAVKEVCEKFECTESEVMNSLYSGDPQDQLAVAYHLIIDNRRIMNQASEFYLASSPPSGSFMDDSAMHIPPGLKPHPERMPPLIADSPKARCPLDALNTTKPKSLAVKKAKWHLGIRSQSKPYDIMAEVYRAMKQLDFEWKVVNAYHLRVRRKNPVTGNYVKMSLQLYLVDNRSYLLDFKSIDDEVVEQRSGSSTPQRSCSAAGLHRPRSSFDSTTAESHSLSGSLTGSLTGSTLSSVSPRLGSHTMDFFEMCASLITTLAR
Protocol: as §1

CDK11 = molecular target: T6, CDK11 (Homo sapiens, UniProt Q9BWU1)
T6 construct: purchased Eurofins DiscoverX (KINOMEscan)
Protocol: as §1

INSR = molecular target: T7, INSR (Homo sapiens, UniProt P06213)
T7 construct: purchased Eurofins DiscoverX (KINOMEscan)
Protocol: as §1

STK36 = molecular target: T8, STK36 (Homo sapiens, UniProt Q9NRP7)
T8 construct: purchased Eurofins DiscoverX (KINOMEscan)
Protocol: as §1

IKK-beta = molecular target: T9, IKK-beta (Homo sapiens, UniProt O14920)
T9 construct: purchased Eurofins DiscoverX (KINOMEscan)
Protocol: as §1

EPHA5 = molecular target: T10, EPHA5 (Homo sapiens, UniProt P54756)
T10 construct: purchased Eurofins DiscoverX (KINOMEscan)
Protocol: as §1

FGFR3 = molecular target: T11, FGFR3 (Homo sapiens, UniProt P22607)
T11 construct: purchased Eurofins DiscoverX (KINOMEscan)
T11 sequence (P22607 23-806): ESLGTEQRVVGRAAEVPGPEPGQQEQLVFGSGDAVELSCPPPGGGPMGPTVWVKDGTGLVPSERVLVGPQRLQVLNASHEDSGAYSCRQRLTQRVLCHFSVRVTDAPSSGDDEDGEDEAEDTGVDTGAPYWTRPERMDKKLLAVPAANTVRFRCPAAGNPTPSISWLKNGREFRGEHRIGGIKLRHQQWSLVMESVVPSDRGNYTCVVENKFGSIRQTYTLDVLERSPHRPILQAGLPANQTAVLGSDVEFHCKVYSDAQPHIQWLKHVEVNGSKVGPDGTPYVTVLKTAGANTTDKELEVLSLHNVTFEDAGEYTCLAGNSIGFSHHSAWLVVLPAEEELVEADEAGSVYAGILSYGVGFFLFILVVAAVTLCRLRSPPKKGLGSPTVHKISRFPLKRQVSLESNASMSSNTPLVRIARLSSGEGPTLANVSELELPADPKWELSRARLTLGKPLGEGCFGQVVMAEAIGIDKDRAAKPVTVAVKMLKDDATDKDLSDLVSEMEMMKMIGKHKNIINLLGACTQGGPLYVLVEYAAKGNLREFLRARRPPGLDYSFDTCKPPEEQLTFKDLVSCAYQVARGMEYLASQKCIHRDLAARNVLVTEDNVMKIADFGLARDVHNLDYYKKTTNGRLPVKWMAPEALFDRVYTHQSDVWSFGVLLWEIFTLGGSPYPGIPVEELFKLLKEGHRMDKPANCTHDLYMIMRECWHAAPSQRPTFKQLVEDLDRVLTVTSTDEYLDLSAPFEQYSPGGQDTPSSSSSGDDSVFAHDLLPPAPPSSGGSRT
Protocol: as §1

KIT(D816H) = molecular target: T12, KIT(D816H) (Homo sapiens, UniProt P10721, D816H)
T12 construct: purchased Eurofins DiscoverX (KINOMEscan)
Protocol: as §1

NEK1 = molecular target: T13, NEK1 (Homo sapiens, UniProt Q96PY6)
T13 construct: purchased Eurofins DiscoverX (KINOMEscan)
Protocol: as §1

MLCK = molecular target: T14, MLCK (Homo sapiens, UniProt Q32MK0)
T14 construct: purchased Eurofins DiscoverX (KINOMEscan)
Protocol: as §1

PAK6 = molecular target: T15, PAK6 (Homo sapiens, UniProt Q9NQU5)
T15 construct: purchased Eurofins DiscoverX (KINOMEscan)
Protocol: as §1

[1] = molecular target: T16, ABL1(M351T)-phosphorylated (Homo sapiens, UniProt P00519, M351T)
T16 construct: purchased Eurofins DiscoverX (KINOMEscan)
Protocol: as §1

MAP4K3 = molecular target: T17, MAP4K3 (Homo sapiens, UniProt Q8IVH8)
T17 construct: purchased Eurofins DiscoverX (KINOMEscan)
Protocol: as §1

SIK2 = molecular target: T18, SIK2 (Homo sapiens, UniProt Q9H0K1)
T18 construct: purchased Eurofins DiscoverX (KINOMEscan)
Protocol: as §1

CDK4-cyclinD1 = molecular target: T19, CDK4-cyclinD1 (Homo sapiens, UniProt P11802)
T19 construct: purchased Eurofins DiscoverX (KINOMEscan)
Protocol: as §1

ROS1 = molecular target: T20, ROS1 (Homo sapiens, UniProt P08922)
T20 construct: purchased Eurofins DiscoverX (KINOMEscan)
Protocol: as §1

HPK1 = molecular target: T21, HPK1 (Homo sapiens, UniProt Q92918)
T21 construct: purchased Eurofins DiscoverX (KINOMEscan)
Protocol: as §1

KIT(V559D) = molecular target: T22, KIT(V559D) (Homo sapiens, UniProt P10721, V559D)
T22 construct: purchased Eurofins DiscoverX (KINOMEscan)
Protocol: as §1

GSK3A = molecular target: T23, GSK3A (Homo sapiens, UniProt P49840)
T23 construct: purchased Eurofins DiscoverX (KINOMEscan)
Protocol: as §1

MAP3K4 = molecular target: T24, MAP3K4 (Homo sapiens, UniProt Q9Y6R4)
T24 construct: purchased Eurofins DiscoverX (KINOMEscan)
T24 sequence (Q9Y6R4 whole entry): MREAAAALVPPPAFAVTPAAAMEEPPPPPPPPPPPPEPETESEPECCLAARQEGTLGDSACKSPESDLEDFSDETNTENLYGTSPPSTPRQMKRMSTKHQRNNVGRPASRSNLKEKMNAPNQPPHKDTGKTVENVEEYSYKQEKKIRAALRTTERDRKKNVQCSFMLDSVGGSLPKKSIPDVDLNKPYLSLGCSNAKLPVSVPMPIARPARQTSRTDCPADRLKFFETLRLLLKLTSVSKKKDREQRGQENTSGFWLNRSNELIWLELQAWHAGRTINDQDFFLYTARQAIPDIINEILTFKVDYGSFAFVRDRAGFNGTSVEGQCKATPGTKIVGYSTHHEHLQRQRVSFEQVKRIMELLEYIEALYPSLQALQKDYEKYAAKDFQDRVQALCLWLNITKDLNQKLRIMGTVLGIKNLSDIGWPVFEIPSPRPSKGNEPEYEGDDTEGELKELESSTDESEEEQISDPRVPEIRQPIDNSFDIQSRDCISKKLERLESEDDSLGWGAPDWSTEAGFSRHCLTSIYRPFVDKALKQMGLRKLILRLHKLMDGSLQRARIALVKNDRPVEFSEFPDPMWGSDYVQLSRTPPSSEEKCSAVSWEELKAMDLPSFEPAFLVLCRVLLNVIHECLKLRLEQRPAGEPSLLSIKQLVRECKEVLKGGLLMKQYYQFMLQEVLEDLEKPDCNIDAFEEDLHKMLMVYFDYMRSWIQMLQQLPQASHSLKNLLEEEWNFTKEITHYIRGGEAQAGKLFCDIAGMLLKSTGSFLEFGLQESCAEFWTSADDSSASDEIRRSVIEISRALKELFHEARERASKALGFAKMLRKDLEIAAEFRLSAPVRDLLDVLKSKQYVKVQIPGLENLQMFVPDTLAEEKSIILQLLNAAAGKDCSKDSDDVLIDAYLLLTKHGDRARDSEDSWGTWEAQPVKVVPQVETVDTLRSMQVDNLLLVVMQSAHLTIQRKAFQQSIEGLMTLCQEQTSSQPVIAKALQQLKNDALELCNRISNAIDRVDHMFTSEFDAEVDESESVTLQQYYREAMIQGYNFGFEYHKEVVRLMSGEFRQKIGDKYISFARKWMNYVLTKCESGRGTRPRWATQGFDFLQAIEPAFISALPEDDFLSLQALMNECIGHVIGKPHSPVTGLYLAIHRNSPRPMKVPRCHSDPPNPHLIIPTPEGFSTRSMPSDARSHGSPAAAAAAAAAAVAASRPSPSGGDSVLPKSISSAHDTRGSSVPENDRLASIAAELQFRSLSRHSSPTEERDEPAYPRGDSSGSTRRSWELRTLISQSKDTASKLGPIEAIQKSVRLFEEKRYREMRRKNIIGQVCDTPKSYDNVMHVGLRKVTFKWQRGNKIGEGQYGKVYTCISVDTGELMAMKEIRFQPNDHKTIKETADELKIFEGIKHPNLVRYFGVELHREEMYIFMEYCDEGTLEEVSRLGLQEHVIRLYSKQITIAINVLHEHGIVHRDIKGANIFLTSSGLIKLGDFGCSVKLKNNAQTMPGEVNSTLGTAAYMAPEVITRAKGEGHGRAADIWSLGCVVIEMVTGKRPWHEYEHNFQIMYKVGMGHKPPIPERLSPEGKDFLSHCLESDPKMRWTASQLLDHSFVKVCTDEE
Protocol: as §1

BRSK2 = molecular target: T25, BRSK2 (Homo sapiens, UniProt Q8IWQ3)
T25 construct: purchased Eurofins DiscoverX (KINOMEscan)
Protocol: as §1

PIK3CD = molecular target: T26, PIK3CD (Homo sapiens, UniProt O00329)
T26 construct: purchased Eurofins DiscoverX (KINOMEscan)
Protocol: as §1

NEK2 = molecular target: T27, NEK2 (Homo sapiens, UniProt P51955)
T27 construct: purchased Eurofins DiscoverX (KINOMEscan)
T27 sequence (P51955 whole entry): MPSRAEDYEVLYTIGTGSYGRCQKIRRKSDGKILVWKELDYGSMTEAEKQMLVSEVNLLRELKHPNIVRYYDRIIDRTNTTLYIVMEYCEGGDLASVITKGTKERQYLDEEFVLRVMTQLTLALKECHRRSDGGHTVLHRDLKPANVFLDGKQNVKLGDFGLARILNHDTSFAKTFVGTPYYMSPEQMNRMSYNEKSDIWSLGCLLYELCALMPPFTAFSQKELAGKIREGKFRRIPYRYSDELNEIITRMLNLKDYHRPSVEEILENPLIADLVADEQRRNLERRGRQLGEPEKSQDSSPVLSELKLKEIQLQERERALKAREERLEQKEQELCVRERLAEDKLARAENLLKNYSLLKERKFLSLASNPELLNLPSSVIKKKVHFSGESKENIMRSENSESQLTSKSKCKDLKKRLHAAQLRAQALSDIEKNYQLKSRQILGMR
Protocol: as §1

DDR2 = molecular target: T28, DDR2 (Homo sapiens, UniProt Q16832)
T28 construct: purchased Eurofins DiscoverX (KINOMEscan)
Protocol: as §1

ZAK = molecular target: T29, ZAK (Homo sapiens, UniProt Q9NYL2)
T29 construct: purchased EuroFins DiscoverX (Fremont, CA, USA)
T29 sequence (Q9NYL2 whole entry): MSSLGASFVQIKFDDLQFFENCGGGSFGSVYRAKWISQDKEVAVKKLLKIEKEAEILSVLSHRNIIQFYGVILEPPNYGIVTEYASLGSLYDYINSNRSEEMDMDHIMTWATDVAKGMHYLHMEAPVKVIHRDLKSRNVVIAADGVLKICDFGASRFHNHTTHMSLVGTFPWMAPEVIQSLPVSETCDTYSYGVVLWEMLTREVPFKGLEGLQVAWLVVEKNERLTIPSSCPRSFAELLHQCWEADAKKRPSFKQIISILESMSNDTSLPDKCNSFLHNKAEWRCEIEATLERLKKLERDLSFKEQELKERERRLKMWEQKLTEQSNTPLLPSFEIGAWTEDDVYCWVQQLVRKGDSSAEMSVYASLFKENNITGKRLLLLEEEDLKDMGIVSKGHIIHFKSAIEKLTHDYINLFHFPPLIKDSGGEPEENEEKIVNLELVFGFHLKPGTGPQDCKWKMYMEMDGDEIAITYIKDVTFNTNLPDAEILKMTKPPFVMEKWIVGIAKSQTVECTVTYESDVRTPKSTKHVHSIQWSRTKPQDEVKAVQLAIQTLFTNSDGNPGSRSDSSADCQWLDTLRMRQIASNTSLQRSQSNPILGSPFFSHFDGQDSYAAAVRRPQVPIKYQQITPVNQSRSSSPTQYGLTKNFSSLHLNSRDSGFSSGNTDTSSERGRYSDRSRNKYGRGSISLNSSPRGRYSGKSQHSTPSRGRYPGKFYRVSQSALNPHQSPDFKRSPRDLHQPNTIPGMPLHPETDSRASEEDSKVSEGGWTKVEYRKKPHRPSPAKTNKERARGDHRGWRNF
Protocol: as §1

[2] = molecular target: T30, RPS6KA5(Kin.Dom.1-N-terminal) (Homo sapiens, UniProt O75582)
T30 construct: RPS6KA5(Kin.Dom.1-N-terminal); purchased Eurofins DiscoverX (KINOMEscan)
Protocol: as §1

TTK = molecular target: T31, TTK (Homo sapiens, UniProt P33981)
T31 construct: purchased Eurofins DiscoverX (KINOMEscan)
Protocol: as §1

MKK7 = molecular target: T32, MKK7 (Homo sapiens, UniProt O14733)
T32 construct: purchased Eurofins DiscoverX (KINOMEscan)
Protocol: as §1

CHEK1 = molecular target: T33, CHEK1 (Homo sapiens, UniProt O14757)
T33 construct: purchased Eurofins DiscoverX (KINOMEscan)
T33 sequence (O14757 whole entry): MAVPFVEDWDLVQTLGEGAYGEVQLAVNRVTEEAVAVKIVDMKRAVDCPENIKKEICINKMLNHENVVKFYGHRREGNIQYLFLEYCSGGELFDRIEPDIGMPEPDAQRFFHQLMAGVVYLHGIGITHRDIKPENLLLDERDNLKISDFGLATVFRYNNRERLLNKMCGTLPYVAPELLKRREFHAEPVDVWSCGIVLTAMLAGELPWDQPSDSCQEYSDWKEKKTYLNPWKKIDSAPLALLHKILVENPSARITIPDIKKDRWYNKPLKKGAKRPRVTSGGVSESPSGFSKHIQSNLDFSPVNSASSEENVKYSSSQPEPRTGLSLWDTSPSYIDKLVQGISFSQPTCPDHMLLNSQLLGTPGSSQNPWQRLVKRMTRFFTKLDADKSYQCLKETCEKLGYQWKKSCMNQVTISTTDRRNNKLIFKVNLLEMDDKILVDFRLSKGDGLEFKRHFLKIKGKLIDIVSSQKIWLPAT
Protocol: as §1

FLT3(K663Q) = molecular target: T34, FLT3(K663Q) (Homo sapiens, UniProt P36888, K663Q)
T34 construct: purchased Eurofins DiscoverX (KINOMEscan)
Protocol: as §1

[3] = molecular target: T35, ABL1(T315I)-phosphorylated (Homo sapiens, UniProt P00519, T315I)
T35 construct: purchased Eurofins DiscoverX (KINOMEscan)
Protocol: as §1

CSF1R-autoinhibited = molecular target: T36, CSF1R-autoinhibited (Homo sapiens, UniProt P07333)
T36 construct: purchased Eurofins DiscoverX (KINOMEscan)
Protocol: as §1

PIK3CA(H1047Y) = molecular target: T37, PIK3CA(H1047Y) (Homo sapiens, UniProt P42336, H1047Y)
T37 construct: purchased Eurofins DiscoverX (KINOMEscan)
Protocol: as §1

DRAK2 = molecular target: T38, DRAK2 (Homo sapiens, UniProt O94768)
T38 construct: purchased Eurofins DiscoverX (KINOMEscan)
Protocol: as §1

TRKB = molecular target: T39, TRKB (Homo sapiens, UniProt Q16620)
T39 construct: purchased Eurofins DiscoverX (KINOMEscan)
Protocol: as §1

CDK7 = molecular target: T40, CDK7 (Homo sapiens, UniProt P50613)
T40 construct: purchased Eurofins DiscoverX (KINOMEscan)
T40 sequence (P50613 whole entry): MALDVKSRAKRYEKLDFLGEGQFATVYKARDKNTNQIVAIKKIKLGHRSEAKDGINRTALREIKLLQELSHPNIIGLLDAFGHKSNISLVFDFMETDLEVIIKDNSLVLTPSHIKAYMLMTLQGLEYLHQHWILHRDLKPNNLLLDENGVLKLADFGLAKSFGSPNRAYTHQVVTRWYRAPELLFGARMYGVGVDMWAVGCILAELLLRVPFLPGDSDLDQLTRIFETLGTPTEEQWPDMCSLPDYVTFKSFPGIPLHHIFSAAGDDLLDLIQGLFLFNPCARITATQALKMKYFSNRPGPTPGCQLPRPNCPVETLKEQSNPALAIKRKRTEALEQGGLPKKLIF
Protocol: as §1

ERK2 = molecular target: T41, ERK2 (Homo sapiens, UniProt P28482)
T41 construct: purchased Eurofins DiscoverX (KINOMEscan)
Protocol: as §1

FLT3(D835H) = molecular target: T42, FLT3(D835H) (Homo sapiens, UniProt P36888, D835H)
T42 construct: purchased Eurofins DiscoverX (KINOMEscan)
Protocol: as §1

Molecule `Brc1ccc2nccc(Nc3ccc4cn[nH]c4c3)c2c1` [Compound 35, 6-Bromo-N-(1H-indazol-6-yl)quinolin-4-amine] has an activity at 1 µM (JNK2) of 100%, an activity at 1 µM (FLT3(R834Q)) of 83% and an activity at 1 µM (PDGFRB) of 100%. For the same molecule, the activity at 1 µM (PIK3C2B) was 100%, the activity at 1 µM (AMPK-alpha2) was 100% and the activity at 1 µM (CDK11) was 80%. The activity at 1 µM (INSR) was 99%, the activity at 1 µM (STK36) was 100% and the activity at 1 µM (IKK-beta) was 100%. For the same molecule, the activity at 1 µM (EPHA5) was 100%, the activity at 1 µM (FGFR3) was 100% and the activity at 1 µM (KIT(D816H)) was 100%. It also gave an activity at 1 µM (NEK1) of 100%, an activity at 1 µM (MLCK) of 100% and an activity at 1 µM (PAK6) of 100%. For the same molecule, the activity at 1 µM [1] was 100%, the activity at 1 µM (MAP4K3) was 100% and the activity at 1 µM (SIK2) was 97%. For the same molecule, the activity at 1 µM (CDK4-cyclinD1) was 100%, the activity at 1 µM (ROS1) was 94% and the activity at 1 µM (HPK1) was 100%. It also gave an activity at 1 µM (KIT(V559D)) of 100%, an activity at 1 µM (GSK3A) of 100% and an activity at 1 µM (MAP3K4) of 100%. For the same molecule, the activity at 1 µM (BRSK2) was 100%, the activity at 1 µM (PIK3CD) was 100% and the activity at 1 µM (NEK2) was 86%. It also gave an activity at 1 µM (DDR2) of 100%, an activity at 1 µM (ZAK) of 100% and an activity at 1 µM [2] of 100%. For the same molecule, the activity at 1 µM (TTK) was 100%, the activity at 1 µM (MKK7) was 100% and the activity at 1 µM (CHEK1) was 100%. The activity at 1 µM (FLT3(K663Q)) was 97%, the activity at 1 µM [3] was 95% and the activity at 1 µM (CSF1R-autoinhibited) was 100%. It also gave an activity at 1 µM (PIK3CA(H1047Y)) of 100%, an activity at 1 µM (DRAK2) of 100% and an activity at 1 µM (TRKB) of 85%. For the same molecule, the activity at 1 µM (CDK7) was 100%, the activity at 1 µM (ERK2) was 100% and the activity at 1 µM (FLT3(D835H)) was 94%.

Source: article PMC6891286, “Towards the Development of an In vivo Chemical Probe for Cyclin G Associated Kinase (GAK)” (Molecules, 2019)
